IC50 data for 13 molecules are collected here from patent publication US9029381B2, “Cyclopropyl amide derivatives” (Astrazeneca AB, priority 2007, dated 2015).

Experiment [1] deals with human histamine H3 receptors (Homo sapiens (Human), UniProt Q9Y5N1). As to the kind of experiment: Histamine H3 SPA with the agonist radioligand [3H]-N-α-methylhistamine (hH3 binding). The note with it: inhibition of [3H]-N-α-methylhistamine (1.4 nM) binding to CHO-K1 membranes expressing full-length human H3 (isoform 445). The method, then:
Histamine H3 SPA with the Agonist Radioligand [^3H]-N-α-Methylhistamine
The H3 binding assay was/can be used to evaluate the ability of at least one compound in accordance with formula I, Ia, Ib, and/or Ic to inhibit [^3H]-N-α-methylhistamine binding to CHO-K1 membranes expressing human histamine H3 receptors (full-length H3, the most prevalent brain isoform 445). In 200 μl 96-well SPA format, human H3 membranes (12.5 μg protein/well) and 1.4 nM [^3H]-N-α-methylhistamine were/can be incubated with at least one compound in accordance with formula I, Ia, Ib, and/or Ic for 1.5 hrs to determine percent effect with respect to total (1% DMSO) and non-specific binding (10 μM imetit). […] Single poke (SP) testing can be done in triplicate.
Membranes, prepared from CHO-K1 cells stably expressing the human histamine H3 receptor, can be obtained from ACS.
Tested formula I, Ia, Ib, and/or Ic compounds were/can be provided as solubilized samples in neat DMSO. Serial dilutions were/can be performed in DMSO.
Plates were/can be 96-well Unifilter GF/B (Perkin Elmer, 6005177). Plates were/can be read on a Perkin Elmer TopCount. CPM data was/can be used to analyze unless DPM data generated by a quench curve was/is required.
• 1. 1 mg/ml BSA was/can be added to assay buffer (AB) on day of assay. • 2. Amounts required for bead/membrane pool in AB were/can be calculated: “P”−need 17.1 ml/assay plate+10 ml PlateMate excess. Buffer volume was/can be split between beads and membranes to allow for polytroning of membranes prior to addition to beads. • a. […] A minimum of 15 minutes was/can be waited prior to adding membranes (See b. below). • b. Membranes (hH3 membranes from CHO cells containing recombinant human H3 receptors, 11.7 mg/ml): membranes were/can be removed from −80° C. and thawed in RT waterbath. (0.0702 mg/ml×P) mg of membranes were/can be resuspended in the remaining volume not used with beads above for 12.5 μg/well final and homogenized briefly at polytron speed 5.0. The homogenized membrane mixture was/can be combined with the beads and a minimum of 30 minutes was/can be waited prior to dispensing to plate. • 3. Formula I, Ia, Ib, and/or Ic compounds: For Single Poke, 2 μl mM of a compound in accordance with formula I, Ia, Ib, and/or Ic was/can be dispensed to Optiplates (triplicate plates) for final a concentration of 10 μM. […] Imetit (see below) was/can be used as a control. • 4. […] [^3H]-N-α-methylhistamine ([^3H]-NAMH): A solution in AB at 14 nM, 10× final concentration of 1.4 nM was/can be prepared. 5 μl samples were/can be calculated in quadruplicate on the 13 counter. If concentration was/is 12-14.5 nM, no adjustment was/is may be required. (For IC50s, use final concentration on calculation tab of ABase template.) Assay • 1. […] 2 μl of the formula I, Ia, Ib, and/or Ic compound dilution was/can be mixed and then transferred into assay plates. DMSO was/can be removed and 2 μl of 100 μM Imetit was/can be added to the wells. • 3. 178 μl bead/membrane mixture was/can be dispensed into the assay plate. • 4. 20 μl [^3H]-NAMH was/can be added with Rapid Plate. The assay plate was/can be sealed and incubated for 1.5 hr on RT shaker at speed ˜6.5. • 5. The assay plate was/can be subsequently centrifuged at 1000 rpm for 10 minutes. • 6. The count was/can be performed on TopCount using one of the 3H SPA H3 Quench programs.
The DPM data was/can be analyzed when tSIS was/is less than that associated with 70% of full scale on the quench curve (tSIS<25%). Otherwise, CPM data was/is used.
(§1) The IC50 and nH can be determined by fitting the data to model 205 in XLfit: y=A+((B−A)/(1+((C/x)^D)). Guanosine 5′-O-(3-[^35S]thio)triphosphate [GTPγS] Binding Assay

Experiment [2] concerns the target human Histamine H3 receptor (hH3R) (Homo sapiens (Human), UniProt Q9Y5N1). As to the kind of experiment: Guanosine 5'-O-(3-[35S]thio)triphosphate [GTPγS] binding assay. In kind it is biochemical. The following applies: antagonist mode vs (R)-α-methyl histamine 30 nM; membranes from CHO cells expressing hH3R. The method, then:
as §1
A GTPγS binding assay can be used to investigate antagonist properties of compounds in CHO cells (Chinese Hamster Ovary) transfected with human Histamine H3 receptor (hH3R). Membranes from CHO cells expressing hH3R (10 μg/well) are diluted in GTPγS assay buffer (20 mM Hepes, 10 mM MgCl2, 100 mM NaCl, pH 7.4) and preincubated with saponine (3 μg/ml), GDP (10 μM) and PVT-WGA SPA beads (125 μg/well) (Amersham) for 30 minutes. To determine antagonist activity, (R)-α-methyl histamine (30 nM) is added in 96 well SPA plate with [^35S]GTPγS (0.2 nM) and various concentration of H3R antagonists. The GTPγS binding assay is started with addition of the mixture membrane/saponine/GDP and incubated for 90 minutes at room temperature. The amount of bound [^35S]GTPγS is determined by using the MicroBeta Trilux counter (PerkinElmer). The percentage of [^35S]GTPγS bound in each sample is calculated as a percentage of that bound control sample incubated in absence of H3 antagonist. Duplicate determinations are obtained for each concentration, and the data are analyzed using ExcelFit4 to obtain the IC50.
(In general: GTPγS is a poorly hydrolysed GTP analogue; its binding reports G protein activation.)

Sequence of human histamine H3 receptors (Q9Y5N1 whole entry, canonical isoform): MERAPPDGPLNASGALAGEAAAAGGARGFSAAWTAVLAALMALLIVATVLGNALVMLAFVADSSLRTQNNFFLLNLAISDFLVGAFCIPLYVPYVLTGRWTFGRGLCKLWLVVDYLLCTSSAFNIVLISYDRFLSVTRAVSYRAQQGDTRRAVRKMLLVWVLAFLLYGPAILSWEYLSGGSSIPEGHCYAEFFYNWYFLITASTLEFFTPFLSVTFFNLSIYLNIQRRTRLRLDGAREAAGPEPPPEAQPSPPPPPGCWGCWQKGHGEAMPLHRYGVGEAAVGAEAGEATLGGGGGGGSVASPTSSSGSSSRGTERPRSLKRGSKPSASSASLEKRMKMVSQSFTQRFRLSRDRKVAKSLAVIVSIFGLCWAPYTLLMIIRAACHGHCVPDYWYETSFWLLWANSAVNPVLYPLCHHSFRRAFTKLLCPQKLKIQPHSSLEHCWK
Sequence of human Histamine H3 receptor (hH3R) (Q9Y5N1 whole entry): as the sequence (Q9Y5N1 whole entry, canonical isoform) above

In general, IC50 refers to the midpoint of a concentration-inhibition curve. Low values mean inhibition by little substance, high ones a need for much substance. Turning to `O=C([C@H]1C[C@@H]1c1ccccc1)N1CCN(C2CCC2)CC1` [Example 24, (4-cyclobutylpiperazin-1-yl)((1S,2S)-2-phenylcyclopropyl)methanone], the IC50 turned out to be 3.49 nM in experiment [1] and 3.41 nM in experiment [2].
For `O=C([C@@H]1C[C@H]1c1ccc(Br)cc1)N1CCN(C2CCC2)CC1` [Example 15, (1R,2R)-(2-(4-bromophenyl)cyclopropyl)(4-cyclobutylpiperazin-1-yl)methanone], in that order: 3400 nM and 262 nM.
For `O=C([C@H]1C[C@@H]1c1ccc(N2CCCC2=O)cc1)N1CCN(C2CCC2)CC1` (relative stereo) [Example 17, trans-1-{4-[2-(4-Cyclobutylpiperazine-1-carbonyl)cyclopropyl]phenyl}pyrrolidin-2-one] the same measures were 433 nM and 196 nM.
For `O=C([C@H]1C[C@@H]1c1ccc(-c2cn[nH]c2)cc1)N1CCN(C2CCC2)CC1` (relative stereo) [Example 20, trans-{2-[4-(1H-Pyrazol-4-yl)phenyl]cyclopropyl}-(4-cyclobutylpiperazin-1-yl)methanone] the same measures were 29.1 nM and 33.9 nM.
For `NC(=O)c1cccc([C@@H]2C[C@H]2C(=O)N2CCN(C3CCC3)CC2)c1` (single isomer, unassigned; enantiomer 2) [Example 37, 3-((trans)-2-(4-cyclobutylpiperazine-1-Carbonyl)cyclopropyl)benzamide, enantiomer 2], the IC50 in experiment [2] is greater than 1050 nM.
On the same count and under the same terms, under `O=C([C@@H]1C[C@H]1c1cccc(N2CCCCC2=O)c1)N1CCN(C2CCC2)CC1` (single isomer, unassigned; enantiomer 1) [Example 40, 1-(3-((trans)-2-(4-cyclobutylpiperazine-1-carbonyl)cyclopropyl)phenyl)piperidin-2-one, enantiomer 1] stands 18.2 nM.
`O=C([C@H]1C[C@@H]1c1ccc(Br)cc1)N1CCN(C2CCC2)CC1` [Example 14, (1S,2S)-(2-(4-bromophenyl)cyclopropyl)(4-cyclobutylpiperazin-1-yl)methanone]: the IC50 was 16.8 nM in experiment [1] and 6.81 nM in experiment [2].
On to `O=C([C@H]1C[C@@H]1c1cccc(N2CCCC2=O)c1)N1CCN(C2CCC2)CC1` (relative stereo) [Example 34, trans-1-(3-(2-(4-Cyclobutylpiperazine-1-carbonyl)cyclopropyl)phenyl)pyrrolidin-2-one], for which the IC50 in experiment [1] was found to be 5.09 nM; in experiment [2] it was 23.9 nM.
For the molecule `CC(C)N1CCN(C(=O)C2CC2c2cnn(C)c2)CC1` (stereo not shown) [Example 45, (4-isopropylpiperazin-1-yl)(2-(1-methyl-1H-pyrazol-4-yl)cyclopropyl)methanone], the IC50 in experiment [2] was 127 nM.
Turning to `O=C([C@@H]1C[C@H]1c1cccc(N2CCCC2=O)c1)N1CCN(C2CCC2)CC1` (single isomer, unassigned; enantiomer 1) [Example 38, 1-(3-((trans)-2-(4-cyclobutylpiperazine-1-carbonyl)cyclopropyl)phenyl)pyrrolidin-2-one, enantiomer 1], in experiment [2], the IC50 is 11.6 nM.
As for `CCCN1CCN(C(=O)[C@H]2C[C@@H]2c2ccccc2)CC1` (relative stereo) [Example 7, trans-(2-Phenylcyclopropyl)-(4-propylpiperazin-1-yl)methanone], the values for the IC50 in experiment [1] and in experiment [2] were 146 nM and 39.7 nM, respectively.
For `O=C([C@@H]1C[C@H]1c1ccccc1)N1CCN(C2CCC2)CC1` [Example 25, (4-cyclobutylpiperazin-1-yl)((1R,2R)-2-phenylcyclopropyl)methanone] the same measures were 6420 nM and 870 nM.
For `NC(=O)c1ccc([C@@H]2C[C@H]2C(=O)N2CCN(C3CCC3)CC2)cc1` (relative stereo) [Example 42, 4-((trans)-2-(4-cyclobutylpiperazine-1-carbonyl)cyclopropyl)benzamide] the same measures were 14.4 nM and 5.83 nM.
